Results from patent US20260258420A1, “COMPOSITIONS AND METHODS FOR THE TREATMENT OF HUMAN PAPILLOMAVIRUS-DRIVEN CANCERS” (priority 2023, published 2026).

Key:
Assay type in all cases: cell-based
[1] = test system: 16 HPV-positive and 17 HPV-negative HNSCC and cervical squamous cancer cell lines; experiment: High-throughput drug screen (HTDS), whole panel, comparison by HPV status; conditions: AOC_LD as a dichotomous variable
Method: The concordance correlation coefficient was computed to assess the reproducibility of the normalized growth rates of the 2 replicates. […] A chi-square test was applied to compare drug classification and the cluster membership. The Fisher exact test was applied to compare mutations status (wild-type and mutant) and drugs' response data (sensitive and resistant).
The effects of 864 unique drugs from 51 classes was tested in 16 HPV-positive and 17 HPV-negative HNSCC and cervical squamous cancer cell lines (Table 2) that were characterized previously (Kaiu, et al., Oncotarget 2017; 8(49):86369-83).

[2] = test system: HPV-positive cancer cell lines (UMSCC47, CaSki, and MS751); experiment: BrdU-TUNEL apoptosis assay, HPV-positive cell lines; conditions: 50 nmol/L barasertib or 200 nmol/L alisertib, 72 hours or 2 doubling times
Method: BrdU positive apoptotic cells were detected and quantified. The bar graph indicates the percentage of apoptotic cells with fragmented DNA in HPV-positive and HPV-negative cell lines. Values are the means±the standard deviations for 3 independent experiments. FIG. 2B and FIG. 2C show immunoblots of cleaved PARP (Cl. PARP) and cleaved caspase-3 (Cl. Caspase-3) levels in 3-HPV positive and 3 HPV-negative cell lines after barasertib or alisertib treatment for 2 doubling times (FIG. 2B) or 72 hours (FIG. 2C). […] UM47, UMSCC47; GAPDH, glyceraldehyde 3-phosphate dehydrogenase.
To measure apoptosis, TUNEL staining was performed with an APO-BRDU Kit (BD Biosciences, San Jose, CA) and annexin V/propidium iodide staining with an FITC Annexin V Apoptosis Detection Kit PE (eBioscience, San Diego, CA) as described previously (Kalu, et al., Cancer Lett 2018; 431:64-72). […] Data were acquired with a 3-laser, 10-color Gallios flow cytometer (Beckman Coulter, Brea, CA) and analyzed using Kaluza software, RRID:SCR_016182 (Beckman Coulter, Brea, CA). […] Briefly, after drug treatment, cells were incubated with Senescence Green Probe, a fluorescence-based reagent that contains 2 galactoside moieties that make it specific to […]. The enzyme-cleaved product is retained within the cell, and it emits a fluorogenic signal that was measured at 490/514 nm using a flow cytometer. […]

[3] = test system: HN31 cells stably transfected with an E7 plasmid; experiment: Apoptosis in HPV-negative cells overexpressing E7; conditions: 300 nmol/L, 24 hours
Method: Each data point represents 1 cell line. Box plots show the median pRb […] levels and 95% confidence intervals across all cell lines in the category. t-test P=0.0097. FIG. 4B, HPV-negative HNSCC cells (HN31, UMSCC4, and MDA886LN) were infected with distinct, lentivirus-based shRNAs (Sh2, Sh4, and Sh6) to stably knock down the expression of RB1 or were treated with control (Ctrl) shRNA. Cells were then treated with 300 nmol/L alisertib for 24 hours before annexin V-PE/7AAD staining and analysis with flow cytometry. The bar graph represents the ratio of apoptosis (late plus early) among different groups. Values are the means±the standard deviations for 3 independent experiments. *P<0.05; **P<0.005; unpaired, 2-tailed Student t-test. FIG. 4C, cells from FIG. 4B were treated with 300 nmol/L alisertib for 24 hours before lysis and immunoblotting with the indicated antibodies. FIG. 4D-E, HN31 cells were stably transfected with an E7 plasmid and treated with 300 nmol/L alisertib for 24 hours before lysis and immunoblotting with (FIG. 4D) the indicated antibodies or (FIG. 4E) annexin-PE staining to measure apoptosis. Values are the means±the standard deviations for 3 independent experiments. ** P≤0.01; *** P≤0.001. FIG. 4F, two HPV-positive cell lines were transfected with 10 nmol/L siRNA oligonucleotides specific to E7 or with control oligonucleotides. […]

[4] = test system: 2 HPV-positive cell lines transfected with MAD2L1 plasmid; experiment: Apoptosis with Mad2 overexpression; conditions: 100 nmol/L, 24 hours
Method: FIG. 6A, mRNA expressions of MAD2L1, BUBIB and TRIP13 in HNSCC HPV-positive (n=70) and HPV-negative (n=447) HNSCC patient tumors from the TCGA (left panel) and in HPV-positive (n=51) and HPV-negative OPSCC [(n=28), right panel]. FIG. 6B, FIG. 6C, TRIP13 was depleted by siRNA in HPV-positive and negative cell lines. Cells were then treated with 100 nmol/L alisertib for 36 hours before being subjected to lysis and immunoblotting with the indicated antibodies (FIG. 6B) or annexin-PE staining to measure apoptosis using flow cytometry (FIG. 6C). FIG. 6D, FIG. 6E, the MAD2L1 plasmid was transiently transfected into 2 HPV-positive cell lines that were then treated with 100 nmol/L alisertib for 24 hours before being subjected to lysis and immunoblotting for the indicated proteins (FIG. 6D) or annexin-PE staining to measure apoptosis (FIG. 6E). Values are the means±the standard deviations for 3 independent experiments (** P≤0.01). Cl, cleaved; Fl, full length; GAPDH, glyceraldehyde 3-phosphate dehydrogenase; Ox, overexpression. FIG. 6F, model of the synthetic lethality between TRIP13 and Aurora kinase A. HPV-positive, Rb deficient cancer cells rely on both TRIP13 and Aurora kinase activity to maintain mitotic fidelity, such that their combined inhibition will lead to a prolonged spindle assembly checkpoint (SAC), irreversible mitotic arrest, and cancer cell death. […]

COc1cc(Nc2ncc3c(n2)-c2ccc(Cl)cc2C(c2c(F)cccc2OC)=NC3)ccc1C(=O)O [ALISERTIB, alisertib]
efficacy in HPV-positive vs HPV-negative cell lines [1]: tended to be more effective in HPV-positive cell lines | TUNEL-positive apoptotic nuclei [2]: significantly increased | apoptosis (cleaved caspase-3, PARP, annexin V) [3]: selectively enhanced apoptosis | apoptosis with Mad2 overexpression [4]: enhanced apoptosis
